The values below come from US20080287430A1, “Furan Compounds Useful As Ep1 Receptor Antagonists” (priority 2005, published 2008).

Where a name gives a salt, the structure may show the parent alone. Some results are limits rather than exact numbers.

This assay has as its target T1, human EP1 receptor (Homo sapiens, UniProt P34995).
T1 construct: expressed in transfected cells; host or cells: CHO-K1
T1 sequence (P34995 1-402): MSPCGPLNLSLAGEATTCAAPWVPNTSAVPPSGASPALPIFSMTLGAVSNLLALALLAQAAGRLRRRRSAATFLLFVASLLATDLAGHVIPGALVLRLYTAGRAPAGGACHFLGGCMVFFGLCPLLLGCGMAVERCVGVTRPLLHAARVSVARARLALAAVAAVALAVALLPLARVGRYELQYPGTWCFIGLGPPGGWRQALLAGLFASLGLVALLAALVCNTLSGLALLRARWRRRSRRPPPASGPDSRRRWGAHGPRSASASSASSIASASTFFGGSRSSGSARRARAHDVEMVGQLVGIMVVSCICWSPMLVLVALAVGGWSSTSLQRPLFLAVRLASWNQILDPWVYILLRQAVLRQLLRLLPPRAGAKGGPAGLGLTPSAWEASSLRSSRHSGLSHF
Put plainly: human EP1 calcium mobilisation assay. The settings on record: human EP1, PGE2-induced calcium mobilisation in CHO-K1 cells; free bases or sodium salts; averages of a number of experiments; read-out: functional pKi value (converted). Type of assay: cell-based. How it is done: Briefly, the antagonist properties of compounds are assessed by their ability to inhibit the mobilisation of intracellular calcium ([Ca^2+]i) in response to activation of EP1 or EP3 receptors by the natural agonist hormone prostaglandin E2 (PGE2). Increasing concentrations of antagonist reduce the amount of calcium that a given concentration of PGE2 can mobilise. The net effect is to displace the PGE2 concentration-effect curve to higher concentrations of PGE2. The amount of calcium produced is assessed using a calcium-sensitive fluorescent dye such as Fluo-4, AM and a suitable instrument such as a Fluorimetric Imaging Plate Reader (FLIPR). Increasing amounts of [Ca^2+]i produced by receptor activation increase the amount of fluorescence produced by the dye and give rise to an increasing signal. The signal may be detected using the FLIPR instrument and the data generated may be analysed with suitable curve-fitting software.
The human EP1 or EP3 calcium mobilisation assay (hereafter referred to as ‘the calcium assay’) utilises Chinese hamster ovary-K1(CHO-K1) cells into which a stable (pCIN; BioTechniques 20 (1996): 102-110) vector containing either EP1 or EP3 cDNA has previously been transfected. Cells are cultured in suitable flasks containing culture medium such as DMEM:F-12 supplemented with 10% v/v foetal calf serum, 2 mM L-glutamine, 0.25 mg/ml geneticin, 100 μM flurbiprofen and 10 μg/ml puromycin.
For assay, cells are harvested using a proprietary reagent that dislodges cells such as Versene. Cells are re-suspended in a suitable quantity of fresh culture media for introduction into a 384-well plate. Following incubation for 24 hours at 37° C. the culture media is replaced with a medium containing Fluo-4 and the detergent pluronic acid, and a further incubation takes place. Concentrations of compounds are then added to the plate in order to construct concentration-effect curves. This may be performed on the FLIPR in order to assess the agonist properties of the compounds. Concentrations of PGE2 are then added to the plate in order to assess the antagonist properties of the compounds.
The data so generated may be analysed by means of a computerised curve-fitting routine. The concentration of compound that elicits a half-maximal inhibition of the calcium mobilisation induced by PGE2 (pIC50) may then be estimated.
(Calcium assays in cells follow changes in intracellular calcium, usually with a dye or a luminescent sensor.)
Turning to `O=C(Nc1c(F)cccc1F)c1ccc(Cc2cc(Cl)ccc2OCc2ccc(F)cc2)o1` [Example 82, 5-[(5-Chloro-2-{[(4-fluorophenyl)methyl]oxy}-phenyl)methyl]-N-(2,6-difluorophenyl)-2-furancarboxamide], the Ki is under 1000 nM.
Take `CC(C)COc1ccc(Cl)cc1Cc1ccc(C(=O)NCc2ccc(F)cc2)o1` [Example 37]: the Ki was under 1000 nM.
To `CC(C)Oc1ccc(Cl)cc1Cc1ccc(C(=O)O)o1` [Example 2, Sodium 5-({5-chloro-2-[(1-methylethyl)oxy]phenyl}methyl)-2-furancarboxylate] belongs under 1000 nM.
To `COc1ccc(CNC(=O)c2ccc(Cc3cc(Cl)ccc3OCC(C)C)o2)cc1` [Example 40, 5-({5-Chloro-2-[(2-methylpropyl)oxy]phenyl}methyl)-N-{[4-(methyloxy)phenyl]methyl}-2-furancarboxamide] belongs under 1000 nM; to `O=C(Nc1c(F)cccc1F)c1ccc(Cc2cc(Cl)ccc2OCc2ccc(F)c(F)c2)o1` [Example 86, 5-[(5-Chloro-2-{[(3,4-difluorophenyl)methyl]oxy}-phenyl)methyl]-N-(2,6-difluorophenyl)-2-furancarboxamide], under 1000 nM; to `Clc1ccc(OCc2ccccc2)c(Cc2ccc(-c3nc4cnccc4[nH]3)o2)c1` [Example 120, 2-[5-({5-Chloro-2-[(phenylmethyl)oxy]-phenyl}methyl)-2-furanyl]-1H-imidazo[4,5-c]pyridine hydrochloride], under 1000 nM.
Turning to `CC(C)COc1ccc(Cl)cc1Cc1ccc(-c2nc3cccc(CO)c3[nH]2)o1` [Example 134, {2-[5-({5-chloro-2-[(2-methylpropyl)oxy]phenyl}methyl)-2-furanyl]-1H-benzimidazol-4-yl}methanol], the Ki was over 1000 nM.
To `CC(C)(C)NC(=O)c1ccc(Cc2cc(Cl)ccc2OCc2ccccc2)o1` [Example 51, 5-({5-Chloro-2-[(phenylmethyl)oxy]phenyl}methyl)-N-(1,1-dimethylethyl)-2-furancarboxamide] belongs under 1000 nM; to `O=C(Nc1ccccc1F)c1ccc(Cc2cc(Cl)ccc2OCc2ccccc2)o1` [Example 69, 5-({5-Chloro-2-[(phenylmethyl)oxy]-phenyl}methyl)-N-(2-fluorophenyl)-2-furancarboxamide], under 1000 nM; to `CC(C)COc1ccc(Cl)cc1Cc1ccc(-c2nc3ccc(CNC(C)C)cc3[nH]2)o1` [Example 155, N-({2-[5-({5-Chloro-2-[(2-methylpropyl)oxy]-phenyl}methyl)-2-furanyl]-1H-benzimidazol-5-yl}methyl)-2-propanaminedihydrochloride], under 1000 nM.
Consider `Cc1ccc2[nH]c(-c3ccc(Cc4cc(Cl)ccc4OCC(C)C)o3)nc2c1` [Example 125, 2-[5-({5-Chloro-2-[(2-methylpropyl)oxy]phenyl}-methyl)-2-furanyl]-5-methyl-1H-benzimidazole], for which the Ki is under 1000 nM.
With `O=C(Nc1c(F)cccc1F)c1ccc(Cc2cc(Cl)ccc2OCC2CCCCC2)o1` [Example 96, 5-({5-Chloro-2-[(cyclohexylmethyl)oxy]-phenyl}methyl)-N-(2,6-difluorophenyl)-2-furancarboxamide] the figure was under 1000 nM; with `CCC(CC)Oc1ccc(Cl)cc1Cc1ccc(C(=O)O)o1` [Example 4, Sodium 5-({5-chloro-2-[(1-ethylpropyl)oxy]phenyl}methyl)-2-furancarboxylate], under 1000 nM.
With `Clc1ccc(OCc2ccccc2)c(Cc2ccc(-c3nc4cscc4[nH]3)o2)c1` [Example 101, 2-[5-({5-Chloro-2-[(phenylmethyl)oxy]phenyl}methyl)-2-furanyl]-1H-thieno[3,4-d]imidazole] the figure was under 1000 nM; with `CC(C)COc1ccc(Cl)cc1Cc1ccc(C(=O)NCc2ccc(Cl)cc2)o1` [Example 41, 5-({5-Chloro-2-[(2-methylpropyl)oxy]phenyl}methyl)-N-[(4-chlorophenyl)methyl]-2-furancarboxamide], under 1000 nM.
Take `CC(C)COc1ccc(Cl)cc1Cc1ccc(C(=O)NCc2c(F)cccc2F)o1` [Example 43, 5-({5-Chloro-2-[(2-methylpropyl)oxy]phenyl}methyl)-N-[(2,6-difluorophenyl)methyl]-2-furancarboxamide]: the Ki is under 1000 nM.
To `CCCOc1ccc(Cl)cc1Cc1ccc(C(=O)O)o1` [Example 1, Sodium 5-{[5-chloro-2-(propyloxy)phenyl]methyl}-2-furancarboxylate] belongs under 1000 nM; to `CC(C)COc1ccc(Cl)cc1Cc1ccc(-c2nc3ccc(CN4CCOCC4)cc3[nH]2)o1` [Example 144, 2-[5-({5-Chloro-2-[(2-methylpropyl)oxy]-phenyl}methyl)-2-furanyl]-5-(4-morpholinylmethyl)-1H-benzimidazoledihydrochloride], under 1000 nM.
Consider `O=C(Nc1c(F)cccc1F)c1ccc(Cc2cc(Cl)ccc2OCc2cccnc2)o1` [Example 92, 5-({5-Chloro-2-[(3-pyridinylmethyl)oxy]phenyl}methyl)-N-(2,6-difluorophenyl)-2-furancarboxamide], for which the Ki was under 1000 nM.
To `CC(C)COc1ccc(Cl)cc1Cc1ccc(C(=O)Nc2ccccc2)o1` [Example 34, 5-({5-Chloro-2-[(2-methylpropyl)oxy]phenyl}methyl)-N-phenyl-2-furancarboxamide] belongs under 1000 nM.
With `CC(C)COc1ccc(Cl)cc1Cc1ccc(C(=O)NCc2ccc(C(F)(F)F)cc2)o1` [Example 38, 5-({5-Chloro-2-[(2-methylpropyl)oxy]phenyl}methyl)-N-{[4-(trifluoromethyl)phenyl]methyl}-2-furancarboxamide] the figure was under 1000 nM; with `CC(C)COc1ccc(Cl)cc1Cc1ccc(C(=O)n2cnc3ccccc32)o1` [Example 67, 1-{[5-({5-Chloro-2-[(2-methylpropyl)oxy]-phenyl}methyl)-2-furanyl]carbonyl}-1H-benzimidazole], under 1000 nM; with `CC(C)COc1ccc(Cl)cc1Cc1ccc(-c2nc3cc(CN(C)C)cnc3[nH]2)o1` [Example 164, ({2-[5-({5-Chloro-2-[(2-methylpropyl)oxy]-phenyl}methyl)-2-furanyl]-1H-imidazo[4,5-b]pyridin-6-yl}methyl)dimethyl-amine dihydrochloride], under 1000 nM.
With `CC(C)COc1ccc(Cl)cc1Cc1ccc(NC(=O)OC(C)(C)C)o1` [Example 29, 1,1-Dimethylethyl[5-({5-chloro-2-[(2-methylpropyl)oxy]phenyl}methyl)-2-furanyl]carbamate] the figure was under 1000 nM.
As to `O=C(Nc1ccccc1)c1ccc(Cc2cc(Cl)ccc2OCc2ccccc2)o1` [Example 70, 5-({5-Chloro-2-[(phenylmethyl)oxy]-phenyl}methyl)-N-phenyl-2-furancarboxamide], the Ki is under 1000 nM.
With `O=C(O)c1ccc(Cc2cc(Cl)ccc2OCc2ccncc2)o1` [Example 28, Sodium 5-({5-chloro-2-[(4-pyridinylmethyl)oxy]phenyl}methyl)-2-furancarboxylate] the figure was at most 10 nM; with `CC(C)COc1ccc(Cl)cc1Cc1ccc(-c2nc3cc(Cl)ccc3[nH]2)o1` [Example 123, 5-Chloro-2-[5-({5-chloro-2-[(2-methylpropyl)oxy]phenyl}-methyl)-2-furanyl]-1H-benzimidazole], under 1000 nM; with `CC(C)COc1ccc(Cl)cc1Cc1ccc(-c2nc3cc(C(C)(C)C)ccc3[nH]2)o1` [Example 127, 2-[5-({5-Chloro-2-[(2-methylpropyl)oxy]phenyl}-methyl)-2-furanyl]-5-(1,1-dimethylethyl)-1H-benzimidazole], under 1000 nM.
With `O=C(NCc1ccccc1)c1ccc(Cc2cc(Cl)ccc2OCc2ccccc2)o1` [Example 48, 5-({5-Chloro-2-[(phenylmethyl)oxy]phenyl}methyl)-N-(phenylmethyl)-2-furancarboxamide] the figure was under 1000 nM; with `Fc1cc2nc(-c3ccc(Cc4cc(Cl)ccc4OCc4ccccc4)o3)[nH]c2cc1F` [Example 129, 2-[5-({5-Chloro-2-[(phenylmethyl)oxy]phenyl}methyl)-2-furanyl]-5,6-difluoro-1H-benzimidazole], under 1000 nM.
